Data from patent publication US9133139B2, “Fluoroalkyl-1,4-benzodiazepinone compounds” (BRISTOL-MYERS SQUIBB COMPANY, priority 2012, dated 2015).

What was measured:
[1] = Human metabolic stability half-life assay (liver microsomes); type: in vitro ADME; conditions: pH 7.4, human liver microsomes, CYP-mediated (NADPH-dependent), 0.5 μM compound, 45-minute time course, read-out: HLM (t1/2, min)
Description: Metabolic Stability Half-Life Panel
Result Interpretation Guideline
Incubation with Liver Microsomes
Sample Analysis—Instrumentation

[2] = system: TALL-1; experiment: Human Tumor Xenograft Models in Mice, TALL-1; type: in vivo; conditions: for antitumor activity with oral administration (PO): Human Tumor Xenograft Models in mice
Description: Human Tumor Xenograft Models in Mice
Mice were fed food and water ad libitum.
Preclinical Chemotherapy Trials
When death occurred, the day of death was recorded.
In Vivo Antitumor Activity

[3] = system: human Notch 1; experiment: Notch-CBF1 Transactivation Assay (luciferase reporter, transfected HeLa cells), Notch 1; type: cell-based; conditions: read-out: Notch 1 (IC50); HeLa cells transfected with truncated Notch 1 and CBF1 luciferase reporter, 18 hours incubation
Excerpt: Notch-CBF1 Transactivation Assay
The Notch-CBF1 (C-promoter binding factor I) cell based transactivation assay is based on the ability of the released Notch intracellular domain fragments (NICDs) to function as transcription factors in conjunction with CBF1 and other nuclear factors. Luciferase assays were used to measure the antagonism of Notch-CBF1 transcriptional activity. HeLa cervical cancer cells are transiently co-transfected with pCDNA3.1/Hygro plasmids containing truncated Notch 1, Notch 2, Notch 3, or Notch 4 receptors and a PGL3 luciferase reporter vector containing 4 copies of CBF1 binding site. The cells were then tested for Notch-CBF1 activity in the absence or presence of test compounds. HeLa cells, maintained in DMEM (high glucose with HEPES), 1× glutamine/penicillin/streptomycin and 10% Fetal Bovine serum, were transiently transfected in a T175 Flask (4.5×10^6 cells/flask) using the Monster Transfection Kit (Minis #MIR2906) according to manufacturers specifications. Table 2 denotes respective DNA quantity for the transfections.
Assay media (5 μL) containing test compounds in final concentrations ranging from 5 μM to 8.4×10^−5 μM (3 fold serial dilutions) were added to the cells and the cell plates were then incubated for 18 hours at 37° C. and 5% CO2. Control wells contained DMSO vehicle (total counts) or 0.5 μM of an in-house small molecule inhibitor (background counts). Duplicates were used for each sample. Luciferase activity was measured after a 20-minute incubation with 50 μl STEADY-GLO® luciferase reagents according to manufacturer's specifications (Promega, Cat. #E2550) and analyzed by Envision plate reader (PerkinElmer, Boston, Mass.).
The antagonist effect of compounds was expressed as 100×[1−(average sample−average background)/(average total−average background)] where sample is the luciferase activity in the presence of test compound, background is equal to the luciferase activity in the presence of the small molecule inhibitor control and the total is signal induced in DMSO wells.

SMILES | half-life at 0.5 μM [1] [min] | other results
Cc1cccc2c1NC(=O)[C@@H](NC(=O)[C@H](CCC(F)(F)F)[C@@H](C(N)=O)c1ccccc1)N=C2c1cccc(Cl)c1 [Example 31, (2R,3R)—N1-((S)-5-(3-Chlorophenyl)-9-methyl-2-oxo-2,3-dihydro-1H-benzo[e][1,4]diazepin-3-yl)-3-phenyl-2-(3,3,3-trifluoropropyl)succinamide] | ≥ 30 | antitumor activity with oral administration (PO) [2]: showed antitumor activity
Cc1cccc2c1NC(=O)[C@@H](NC(=O)[C@H](CCC(F)(F)F)[C@@H](C(N)=O)c1conc1C)N=C2c1cccc(Cl)c1 [Example 32, (2R,3R)—N1-((S)-5-(3-Chlorophenyl)-9-methyl-2-oxo-2,3-dihydro-1H-benzo[e][1,4]diazepin-3-yl)-3-(3-methylisoxazol-4-yl)-2-(3,3,3-trifluoropropyl)succinamide] | ≥ 30 | 
NC(=O)[C@@H](c1ccccc1)[C@@H](CCC(F)(F)F)C(=O)N[C@H]1N=C(c2ccccc2)c2ccccc2N(c2ccccn2)C1=O [Example 12, (2R,3R)—N-((3S)-2-Oxo-5-phenyl-1-(2-pyridinyl)-2,3-dihydro-1H-1,4-benzodiazepin-3-yl)-3-phenyl-2-(3,3,3-trifluoropropyl)succinamide] |  | IC50 [3]: 13.6 nM
Cc1nocc1[C@H](C(N)=O)[C@@H](CCC(F)(F)F)C(=O)N[C@H]1N=C(c2ccccc2)c2ccccc2N(c2ccccn2)C1=O [Example 11, (2R,3R)-3-(3-Methyl-4-isoxazolyl)-N-((3S)-2-oxo-5-phenyl-1-(2-pyridinyl)-2,3-dihydro-1H-1,4-benzodiazepin-3-yl)-2-(3,3,3-trifluoropropyl)succinamide] | ≥ 30 | IC50 [3]: 12.9 nM
C=CC[C@H](C(N)=O)[C@@H](CC(C)C)C(=O)N[C@H]1N=C(c2ccccc2)c2ccccc2N(CCC)C1=O [Comparative Compound 40, reference compound] | ≤ 8 | 
COc1ccc(N2C(=O)[C@@H](NC(=O)[C@H](CCC(F)(F)F)[C@@H](C(N)=O)c3ccccc3)N=C(c3ccccc3)c3ccccc32)nc1 [Example 15, (2R,3R)—N-((3S)-1-(5-Methoxy-2-pyridinyl)-2-oxo-5-phenyl-2,3-dihydro-1H-1,4-benzodiazepin-3-yl)-3-phenyl-2-(3,3,3-trifluoropropyl)succinamide] |  | IC50 [3]: 17.8 nM
Cc1cccc2c1NC(=O)[C@@H](NC(=O)[C@H](CCC(F)(F)F)[C@@H](C(N)=O)c1ccccc1)N=C2c1cccc(C(F)(F)F)c1 [Example 29, (2R,3R)—N1-((S)-9-Methyl-2-oxo-5-(3-(trifluoromethyl)phenyl)-2,3-dihydro-1H-benzo[e][1,4]diazepin-3-yl)-3-phenyl-2-(3,3,3-trifluoropropyl)succinamide] | ≥ 30 | 
COc1cccc2c1NC(=O)[C@@H](NC(=O)[C@H](CCC(F)(F)F)[C@@H](C(N)=O)c1ccc(Cl)cc1)N=C2c1ccccc1 [Example 36, (2R,3R)-3-(4-Chlorophenyl)-N1-((S)-9-methoxy-2-oxo-5-phenyl-2,3-dihydro-1H-benzo[e][1,4]diazepin-3-yl)-2-(3,3,3-trifluoropropyl)succinamide] | ≥ 30 | 
CCC[C@H](C(N)=O)[C@@H](CC(C)C)C(=O)N[C@H]1N=C(c2ccccc2)c2ccccc2N(C)C1=O [Comparative Compound 37, reference compound] | ≤ 8 | 
NC(=O)[C@@H](c1ccccc1)[C@@H](CCC(F)(F)F)C(=O)N[C@H]1N=C(c2cccc(F)c2)c2cccc(OC3CC3)c2NC1=O [Example 35, (2R,3R)—N1-((S)-9-Cyclopropoxy-5-(3-fluorophenyl)-2-oxo-2,3-dihydro-1H-benzo[e][1,4]diazepin-3-yl)-3-phenyl-2-(3,3,3-trifluoropropyl)succinamide] | ≥ 30 | 
Cc1cccc2c1NC(=O)[C@@H](NC(=O)[C@H](CCC(F)(F)F)[C@@H](C(N)=O)c1ccccc1)N=C2c1cccc(C(F)F)c1 [Example 34, (2R,3R)—N1-((S)-5-(3-(Difluoromethyl)phenyl)-9-methyl-2-oxo-2,3-dihydro-1H-benzo[e][1,4]diazepin-3-yl)-3-phenyl-2-(3,3,3-trifluoropropyl)succinamide] | ≥ 30 | 
CCCC[C@H](C(N)=O)[C@@H](CC(C)C)C(=O)N[C@H]1N=C(c2ccc(Cl)cc2)c2ccccc2N(C)C1=O [Comparative Compound 39, reference compound] | ≤ 8 | 
Cc1nocc1[C@H](C(N)=O)[C@@H](CCC(F)(F)F)C(=O)N[C@H]1N=C(c2ccccc2)c2ccccc2NC1=O [Example 9] | ≥ 30 | 
C=CC[C@H](C(N)=O)[C@@H](CC(C)C)C(=O)N[C@H]1N=C(c2ccccc2)c2cc(Cl)ccc2N(C)C1=O [Comparative Compound 38, reference compound] | ≤ 8 | 
CN1C(=O)[C@@H](NC(=O)[C@H](CCC(F)(F)F)[C@@H](C(N)=O)c2ccccc2)N=C(c2ccccc2)c2ccccc21 [Example 1, (2R,3R)—N-((3S)-1-Methyl-2-oxo-5-phenyl-2,3-dihydro-1H-1,4-benzodiazepin-3-yl)-3-phenyl-2-(3,3,3-trifluoropropyl)succinamide] |  | Antitumor Activity in TALL-1 (LCK), QD dosing ([2]; Dose 24 (unit not given), oral, QD, TALL-1 xenograft in NOD-SCID mice): 3.5 LCK; antitumor activity with oral administration (PO) [2]: showed antitumor activity
COc1cccc(N2C(=O)[C@@H](NC(=O)[C@H](CCC(F)(F)F)[C@@H](C(N)=O)c3ccccc3)N=C(c3ccccc3)c3ccccc32)n1 [Example 16, (2R,3R)—N-((3S)-1-(6-Methoxy-2-pyridinyl)-2-oxo-5-phenyl-2,3-dihydro-1H-1,4-benzodiazepin-3-yl)-3-phenyl-2-(3,3,3-trifluoropropyl)succinamide] |  | IC50 [3]: 16.4 nM
Cc1cccc2c1NC(=O)[C@@H](NC(=O)[C@H](CCC(F)(F)F)[C@@H](C(N)=O)c1ccccc1)N=C2c1ccc(F)cc1 [Example 27, (2R,3R)—N1-((S)-5-(4-Fluorophenyl)-9-methyl-2-oxo-2,3-dihydro-1H-benzo[e][1,4]diazepin-3-yl)-3-phenyl-2-(3,3,3-trifluoropropyl)succinamide] | ≥ 30 | IC50 [3]: 15.3 nM
Cc1nocc1[C@H](C(N)=O)[C@@H](CCC(F)(F)F)C(=O)N[C@H]1N=C(c2ccccc2)c2cccc(Cl)c2NC1=O [Example 17, (2R,3R)—N1-((S)-9-Chloro-2-oxo-5-phenyl-2,3-dihydro-1H-benzo[e][1,4]diazepin-3-yl)-3-(3-methylisoxazol-4-yl)-2-(3,3,3-trifluoropropyl)succinamide] | ≥ 30 | 
Cc1cccc2c1NC(=O)[C@@H](NC(=O)[C@H](CCC(F)(F)F)[C@@H](C(N)=O)c1conc1C)N=C2c1cccc(C(F)(F)F)c1 [Example 28, (2R,3R)—N1-((S)-9-Methyl-2-oxo-5-(3-(trifluoromethyl)phenyl)-2,3-dihydro-1H-benzo[e][1,4]diazepin-3-yl)-3-(3-methylisoxazol-4-yl)-2-(3,3,3-trifluoropropyl)succinamide] | ≥ 30 | 
COc1cccc2c1NC(=O)[C@@H](NC(=O)[C@H](CCC(F)(F)F)[C@@H](C(N)=O)c1conc1C)N=C2c1ccccc1 [Example 20, (2R,3R)—N1-((S)-9-Methoxy-2-oxo-5-phenyl-2,3-dihydro-1H-benzo[e][1,4]diazepin-3-yl)-3-(3-methylisoxazol-4-yl)-2-(3,3,3-trifluoropropyl)succinamide] | ≥ 30 | 
Cc1nocc1[C@H](C(N)=O)[C@@H](CCC(F)(F)F)C(=O)N[C@H]1N=C(c2ccccc2)c2ccccc2N(C)C1=O [Example 6, (2R,3R)—N1-((S)-1-Methyl-2-oxo-5-phenyl-2,3-dihydro-1H-benzo[e][1,4]diazepin-3-yl)-3-(3-methylisoxazol-4-yl)-2-(3,3,3-trifluoropropyl)succinamide] | ≥ 30 | 
Cc1nocc1[C@H](C(N)=O)[C@@H](CCC(F)(F)F)C(=O)N[C@H]1N=C(c2ccccc2)c2cc3c(cc2NC1=O)OCO3 [Example 13, (2R,3R)-3-(3-Methyl-4-isoxazolyl)-N-((7S)-6-oxo-9-phenyl-6,7-dihydro-5H-[1,3]dioxolo[4,5-h][1,4]benzodiazepin-7-yl)-2-(3,3,3-trifluoropropyl)succinamide] | ≥ 30 | 
COc1ccc(N2C(=O)[C@@H](NC(=O)[C@H](CCC(F)(F)F)[C@@H](C(N)=O)c3conc3C)N=C(c3ccccc3)c3ccccc32)nc1 [Example 14, (2R,3R)—N-((3S)-1-(5-Methoxy-2-pyridinyl)-2-oxo-5-phenyl-2,3-dihydro-1H-1,4-benzodiazepin-3-yl)-3-(3-methyl-4-isoxazolyl)-2-(3,3,3-trifluoropropyl)succinamide] | ≥ 30 | 
